Measured values taken from patent US4017611A, “Control of insects with 3-hydroxymethacrylic acid methyl ester dimethylthionophosphate” (priority 1970, dated 1977).

Key:
insects = assay: Insecticidal action and effective life (general statement); assay type: in vivo
[1] = Vapour pressure and diffusion (general statement)
[2] = compared to compounds of French Pat. No. 1530955, PHOSDRIN or DDVP

Question: Which results are given for COC(=O)C(C)=COP(=S)(OC)OC [Compound I, 3-hydroxymethacrylic acid methyl ester dimethylthionophosphate]?
Answer: insecticidal action (insects; [2]): stronger insecticidal action; effective life (insects; in vivo): more than 4 months; diffusion into the gaps between stored foodstuffs [1]: diffuses easily; vapour pressure [1, 2]: increased vapour pressure
